Experimental data published in patent US11459306B2, “Compounds, compositions, and methods for treating T-cell acute lymphoblastic leukemia” (The Trustees of Columbia University in the City of New York, priority 2017, dated 2022).

Tests used:
PIK3CG = target: T1, PIK3CG (Homo sapiens, UniProt P48736); experiment: KINOMEscan competition binding assay (DiscoverX); conditions: DiscoveRx gene symbol PIK3CG (b251 prints: PI3Kδ)
T1 construct: purchased DiscoverX (KINOMEscan); host or cells: E. coli BL21-derived host (T7 phage) or HEK-293
Protocol: (§1) The compounds were tested using KINOMEscan™ (DiscoverX), which is based on a competition binding assay that quantitatively measures the ability of a compound to compete with an immobilized, active-site directed ligand. The assay is performed by combining three components: DNA-tagged kinase; immobilized ligand; and a test compound. The ability of the test compound to compete with the immobilized ligand is measured via quantitative PCR of the DNA tag.
(§2) For most assays, kinase-tagged T7 phage strains were prepared in an E. coli host derived from the BL21 strain. E. coli were grown to log-phase and infected with T7 phage and incubated with shaking at 32° C. until lysis. The lysates were centrifuged and filtered to remove cell debris. The remaining kinases were produced in HEK-293 cells and subsequently tagged with DNA for qPCR detection. Streptavidin-coated magnetic beads were treated with biotinylated small molecule ligands for 30 minutes at room temperature to generate affinity resins for kinase assays. The liganded beads were blocked with excess biotin and washed with blocking buffer (SeaBlock (Pierce), 1% BSA, 0.05% Tween 20, 1 mM DTT) to remove unbound ligand and to reduce non-specific binding. Binding reactions were assembled by combining kinases, liganded affinity beads, and test compounds in 1× binding buffer (20% SeaBlock, 0.17×PBS, 0.05% Tween 20, 6 mM DTT). Test compounds were prepared as 111× stocks in 100% DMSO. Kds were determined using an 11-point 3-fold compound dilution series with three DMSO control points. All compounds for Kd measurements are distributed by acoustic transfer (non-contact dispensing) in 100% DMSO. The compounds were then diluted directly into the assays such that the final concentration of DMSO was 0.9%. All reactions performed in polypropylene 384-well plate. Each was a final volume of 0.02 ml. The assay plates were incubated at room temperature with shaking for 1 hour and the affinity beads were washed with wash buffer (1×PBS, 0.05% Tween 20). The beads were then re-suspended in elution buffer (1×PBS, 0.05% Tween 20, 0.5 μM non-biotinylated affinity ligand) and incubated at room temperature with shaking for 30 minutes. The kinase concentration in the eluates was measured by qPCR.
(§3) An 11-point 3-fold serial dilution of each test compound was prepared in 100% DMSO at 100× final test concentration and subsequently diluted to 1× in the assay (final DMSO concentration=1%). Most Kds were determined using a compound top concentration=30,000 nM. If the initial Kd determined was <0.5 nM (the lowest concentration tested), the measurement was repeated with a serial dilution starting at a lower top concentration.
(§4) Binding constants (Kds) were calculated with a standard dose-response curve using the Hill equation: […]
(§5) The Hill Slope was set to −1. Curves were fitted using a non-linear least square fit with the Levenberg-Marquardt algorithm.

PIK3CA (PI3Kα) = target: T2, PIK3CA (PI3Kα) (Homo sapiens, UniProt P42336); experiment: KINOMEscan competition binding assay (DiscoverX); conditions: DiscoveRx gene symbol PIK3CA (PI3Kα)
T2 construct: purchased DiscoverX (KINOMEscan); host or cells: E. coli BL21-derived host (T7 phage) or HEK-293
Protocol: as §1, §2, §3, §4, §5

PIK3CD = target: T3, PIK3CD (Homo sapiens, UniProt O00329); experiment: KINOMEscan competition binding assay (DiscoverX); conditions: DiscoveRx gene symbol PIK3CD (b251 prints: PI3Kγ)
T3 construct: purchased DiscoverX (KINOMEscan); host or cells: E. coli BL21-derived host (T7 phage) or HEK-293
T3 sequence (O00329 1-1044): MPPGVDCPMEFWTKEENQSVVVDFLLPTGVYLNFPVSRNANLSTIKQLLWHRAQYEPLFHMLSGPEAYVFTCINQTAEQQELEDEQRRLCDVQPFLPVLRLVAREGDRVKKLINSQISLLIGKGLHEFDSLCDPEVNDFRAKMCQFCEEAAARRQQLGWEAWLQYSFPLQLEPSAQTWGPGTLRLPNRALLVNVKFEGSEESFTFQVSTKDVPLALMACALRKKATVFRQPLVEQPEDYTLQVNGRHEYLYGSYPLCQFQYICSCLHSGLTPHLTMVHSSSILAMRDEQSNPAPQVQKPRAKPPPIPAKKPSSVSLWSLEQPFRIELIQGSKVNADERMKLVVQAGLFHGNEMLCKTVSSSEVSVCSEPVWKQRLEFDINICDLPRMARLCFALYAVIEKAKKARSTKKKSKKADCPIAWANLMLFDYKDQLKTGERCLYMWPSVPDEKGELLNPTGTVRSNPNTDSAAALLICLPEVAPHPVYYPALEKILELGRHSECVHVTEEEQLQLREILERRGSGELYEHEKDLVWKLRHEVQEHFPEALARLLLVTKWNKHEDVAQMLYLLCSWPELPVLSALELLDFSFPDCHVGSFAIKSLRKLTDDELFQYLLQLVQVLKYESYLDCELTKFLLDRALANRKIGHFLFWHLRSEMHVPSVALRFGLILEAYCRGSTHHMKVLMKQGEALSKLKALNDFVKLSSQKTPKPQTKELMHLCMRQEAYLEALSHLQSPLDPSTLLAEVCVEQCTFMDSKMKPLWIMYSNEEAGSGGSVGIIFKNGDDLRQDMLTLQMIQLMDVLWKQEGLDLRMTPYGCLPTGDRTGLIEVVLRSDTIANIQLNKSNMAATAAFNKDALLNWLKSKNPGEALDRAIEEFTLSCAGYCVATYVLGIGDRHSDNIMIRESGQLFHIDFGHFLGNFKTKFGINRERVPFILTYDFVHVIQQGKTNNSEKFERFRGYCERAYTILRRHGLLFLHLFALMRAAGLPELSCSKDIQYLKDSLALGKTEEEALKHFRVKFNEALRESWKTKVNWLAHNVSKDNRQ
Protocol: as §1, §2, §3, §4, §5

PIK3CB (PI3Kβ) = target: T4, PIK3CB (PI3Kβ) (Homo sapiens, UniProt P42338); experiment: KINOMEscan competition binding assay (DiscoverX); conditions: DiscoveRx gene symbol PIK3CB (PI3Kβ)
T4 construct: purchased DiscoverX (KINOMEscan); host or cells: E. coli BL21-derived host (T7 phage) or HEK-293
Protocol: as §1, §2, §3, §4, §5

T-ALL = experiment: Mice with genetically induced T-ALL expressing luciferase treated with DWL-PI3K-3; assay type: in vivo; conditions: 10 mg/kg every 12 h for 7 days; luciferin signal and Ki67/thy1.2 positive population
T-ALL cell line = experiment: T-ALL cell viability / cell death; assay type: cell-based, murine
Protocol: Compounds DWL-PI3K-1, DWL-PI3K-2, DWL-PI3K-3, DWL-PI3K-4, DWL-PI3K-5, DWL-PI3K-6 and DWL-PI3K-7, and reference compounds CAL-130, tenalisib, duvelisib were evaluated for efficacy (cell viability by measuring ATP (CellTiter-Glo) or propidium iodide (PI) uptake) against a number of cancer cells, including LMO-2-007, OCI-LY-10, HH, H9, PF382 and CCRF-CEM.

[1] = Pharmacokinetics relative to CAL-130; assay type: in vivo

T4 sequence (P42338 whole entry): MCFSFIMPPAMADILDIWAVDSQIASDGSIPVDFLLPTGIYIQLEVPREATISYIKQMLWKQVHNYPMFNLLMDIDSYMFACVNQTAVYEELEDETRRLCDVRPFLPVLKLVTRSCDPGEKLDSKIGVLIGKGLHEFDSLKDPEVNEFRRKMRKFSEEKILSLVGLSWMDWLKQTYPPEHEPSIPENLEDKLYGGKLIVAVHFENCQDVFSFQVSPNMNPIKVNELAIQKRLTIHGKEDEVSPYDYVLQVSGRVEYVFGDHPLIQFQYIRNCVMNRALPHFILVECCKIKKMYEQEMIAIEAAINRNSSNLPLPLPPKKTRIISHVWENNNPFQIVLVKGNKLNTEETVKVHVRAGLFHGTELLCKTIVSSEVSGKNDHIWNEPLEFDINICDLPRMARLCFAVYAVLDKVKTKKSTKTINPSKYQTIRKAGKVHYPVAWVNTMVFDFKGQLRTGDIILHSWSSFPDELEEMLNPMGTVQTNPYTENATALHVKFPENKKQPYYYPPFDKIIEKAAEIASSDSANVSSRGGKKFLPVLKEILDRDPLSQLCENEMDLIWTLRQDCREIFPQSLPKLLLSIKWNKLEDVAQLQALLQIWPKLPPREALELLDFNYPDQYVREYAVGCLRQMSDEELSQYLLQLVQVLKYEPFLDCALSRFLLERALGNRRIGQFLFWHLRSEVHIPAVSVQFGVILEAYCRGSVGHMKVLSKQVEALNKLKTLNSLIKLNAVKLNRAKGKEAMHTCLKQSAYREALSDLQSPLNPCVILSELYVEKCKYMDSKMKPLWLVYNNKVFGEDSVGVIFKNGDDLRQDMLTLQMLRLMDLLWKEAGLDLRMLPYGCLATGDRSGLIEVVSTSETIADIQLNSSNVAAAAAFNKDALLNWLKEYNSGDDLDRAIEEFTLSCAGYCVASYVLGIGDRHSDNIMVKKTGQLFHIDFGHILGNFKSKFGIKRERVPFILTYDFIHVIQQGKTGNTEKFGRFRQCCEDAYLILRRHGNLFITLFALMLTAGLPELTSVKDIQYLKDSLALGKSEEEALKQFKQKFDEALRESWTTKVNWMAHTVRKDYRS
T1 sequence (P48736 whole entry): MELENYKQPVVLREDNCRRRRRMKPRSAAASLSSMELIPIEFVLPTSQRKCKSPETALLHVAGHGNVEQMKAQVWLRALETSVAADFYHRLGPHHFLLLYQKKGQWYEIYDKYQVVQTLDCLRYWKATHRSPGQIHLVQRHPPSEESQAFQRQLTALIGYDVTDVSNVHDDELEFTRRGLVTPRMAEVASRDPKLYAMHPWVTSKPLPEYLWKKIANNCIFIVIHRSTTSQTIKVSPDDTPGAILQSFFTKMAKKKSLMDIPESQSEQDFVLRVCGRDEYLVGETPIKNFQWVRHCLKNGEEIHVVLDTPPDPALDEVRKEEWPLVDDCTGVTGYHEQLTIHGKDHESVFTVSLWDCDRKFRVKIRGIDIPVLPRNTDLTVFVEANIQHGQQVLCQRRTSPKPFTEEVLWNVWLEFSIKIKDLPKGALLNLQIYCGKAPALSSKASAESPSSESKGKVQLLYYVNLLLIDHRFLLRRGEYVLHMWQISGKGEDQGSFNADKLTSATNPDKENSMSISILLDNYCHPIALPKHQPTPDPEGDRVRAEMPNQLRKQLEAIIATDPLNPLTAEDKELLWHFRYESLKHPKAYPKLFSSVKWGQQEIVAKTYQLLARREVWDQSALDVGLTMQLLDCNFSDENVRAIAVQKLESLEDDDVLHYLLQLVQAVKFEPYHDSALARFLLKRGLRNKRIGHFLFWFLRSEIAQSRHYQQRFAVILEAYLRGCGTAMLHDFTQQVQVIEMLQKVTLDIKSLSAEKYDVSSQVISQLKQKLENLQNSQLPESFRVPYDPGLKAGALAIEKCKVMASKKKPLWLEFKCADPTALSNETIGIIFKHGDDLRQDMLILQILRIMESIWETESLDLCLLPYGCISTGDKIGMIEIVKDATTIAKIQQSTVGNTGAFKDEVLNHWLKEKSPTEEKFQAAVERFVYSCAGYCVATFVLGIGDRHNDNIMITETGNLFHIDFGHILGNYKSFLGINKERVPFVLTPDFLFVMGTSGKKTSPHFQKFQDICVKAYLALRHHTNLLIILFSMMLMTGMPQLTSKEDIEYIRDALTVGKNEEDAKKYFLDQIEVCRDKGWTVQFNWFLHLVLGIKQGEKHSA
T2 sequence (P42336 whole entry): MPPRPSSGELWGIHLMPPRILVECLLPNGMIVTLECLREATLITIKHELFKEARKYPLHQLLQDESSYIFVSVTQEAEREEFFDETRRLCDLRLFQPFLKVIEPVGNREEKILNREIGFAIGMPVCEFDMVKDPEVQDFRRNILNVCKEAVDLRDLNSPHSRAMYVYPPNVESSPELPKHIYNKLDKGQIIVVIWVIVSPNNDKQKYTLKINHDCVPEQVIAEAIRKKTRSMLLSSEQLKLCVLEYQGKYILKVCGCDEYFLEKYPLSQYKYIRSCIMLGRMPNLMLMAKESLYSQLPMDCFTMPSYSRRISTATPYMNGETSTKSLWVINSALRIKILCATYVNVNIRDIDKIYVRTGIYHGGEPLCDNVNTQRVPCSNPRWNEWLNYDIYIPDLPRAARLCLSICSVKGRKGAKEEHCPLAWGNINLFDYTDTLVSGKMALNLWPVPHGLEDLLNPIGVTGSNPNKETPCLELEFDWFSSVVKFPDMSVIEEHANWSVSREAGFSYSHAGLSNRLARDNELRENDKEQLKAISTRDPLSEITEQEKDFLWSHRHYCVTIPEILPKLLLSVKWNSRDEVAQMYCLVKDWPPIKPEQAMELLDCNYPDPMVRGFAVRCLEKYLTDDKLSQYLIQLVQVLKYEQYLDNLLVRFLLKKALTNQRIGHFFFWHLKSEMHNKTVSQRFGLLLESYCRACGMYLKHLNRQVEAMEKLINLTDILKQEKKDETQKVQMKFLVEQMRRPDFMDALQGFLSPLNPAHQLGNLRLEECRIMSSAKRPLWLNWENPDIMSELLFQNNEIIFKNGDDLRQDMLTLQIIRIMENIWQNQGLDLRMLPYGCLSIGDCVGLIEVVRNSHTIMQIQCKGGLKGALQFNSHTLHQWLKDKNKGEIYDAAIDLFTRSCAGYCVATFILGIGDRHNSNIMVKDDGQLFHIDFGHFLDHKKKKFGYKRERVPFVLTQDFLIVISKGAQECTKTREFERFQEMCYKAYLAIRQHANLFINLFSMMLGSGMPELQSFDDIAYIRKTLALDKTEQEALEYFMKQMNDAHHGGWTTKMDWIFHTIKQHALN

Kd (PIK3CG): 0.12 nM
Kd (PIK3CA (PI3Kα)): 4 nM
Kd (PIK3CD): 0.14 nM
Kd (PIK3CB (PI3Kβ)): 0.084 nM
pharmacokinetics [1]: better pharmacokinetics
SMILES: C[C@H](Nc1nc(N)nc(N)c1C#N)c1cc2cccc(Cl)c2c(=O)n1-c1ccccc1 [DWL-PI3K-3, (S)-2,4-diamino-6-((1-(8-chloro-1-oxo-2-phenyl-1,2-dihydroisoquinolin-3-yl)ethyl)amino)pyrimidine-5-carbonitrile]
tumor burden (T-ALL): significant reduction in tumor burden
efficacy in inducing T-ALL cell death relative to CAL-130 (T-ALL cell line; cultured T-ALL cells): greater efficacy than CAL-130
amount needed relative to CAL-130 to achieve a similar reduction in tumor cell survival (T-ALL cell line; relative to CAL-130): about 10 fold less
